ChEMBL document CHEMBL1201861, “Genomics of Drug Sensitity in Cancer screening data, Wellcome Trust Sanger Institute”

Tests used:
COR-L23 = experiment: cells; type: functional, cell-based; conditions: Homo sapiens;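 also: cell viability assay measuring how strongly compounds suppress growth of COR-L23 cells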
Description: SANGER: Inhibition of human COR-L23 cell growth in a cell viability assay.

DMS-153 = experiment: cells; type: functional, cell-based; conditions: Homo sapiens
Description: SANGER: Inhibition of human DMS-153 cell growth in a cell viability assay.

G-402 = experiment: cells; type: functional, cell-based; conditions: Homo sapiens
Description: SANGER: Inhibition of human G-402 cell growth in a cell viability assay.

GP5d = experiment: cells; type: functional, cell-based; conditions: Homo sapiens;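 also: growth inhibition of human GP5d cells, read out with a cell viability assay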
Description: SANGER: Inhibition of human GP5d cell growth in a cell viability assay.

HCC1569 = experiment: cells; type: functional, cell-based; conditions: Homo sapiens;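 also: growth inhibition of human HCC1569 cells, read out with a cell viability assay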
Description: SANGER: Inhibition of human HCC1569 cell growth in a cell viability assay.

HEC-1 = experiment: cells; type: functional, cell-based; conditions: Homo sapiens;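 also: growth inhibition of the cell line, read out with a cell viability assay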
Description: SANGER: Inhibition of human HEC-1 cell growth in a cell viability assay.

HSC-3 = experiment: cells; type: functional, cell-based; conditions: Homo sapiens
Description: SANGER: Inhibition of human HSC-3 cell growth in a cell viability assay.

HT-1376 = experiment: cells; type: functional, cell-based; conditions: Homo sapiens
Description: SANGER: Inhibition of human HT-1376 cell growth in a cell viability assay.

HuO9 = experiment: cells; type: functional, cell-based; conditions: Homo sapiens;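 also: growth inhibition of HuO9 cells, read out with a cell viability assay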
Description: SANGER: Inhibition of human HuO9 cell growth in a cell viability assay.

IGROV-1 = experiment: cells; type: functional, cell-based; conditions: Homo sapiens;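 also: reduction of IGROV-1 cell growth, read out with a viability assay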
Description: SANGER: Inhibition of human IGROV-1 cell growth in a cell viability assay.

IMR-5 = experiment: cells; type: functional, cell-based; conditions: Homo sapiens;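 also: growth inhibition of human IMR-5 cells, read out with a cell viability assay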
Description: SANGER: Inhibition of human IMR-5 cell growth in a cell viability assay.

JEG-3 = experiment: cells; type: functional, cell-based; conditions: Homo sapiens;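 also: growth inhibition of human JEG-3 cells, read out with a cell viability assay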
Description: SANGER: Inhibition of human JEG-3 cell growth in a cell viability assay.

KARPAS-422 = experiment: cells; type: functional, cell-based; conditions: Homo sapiens
Description: SANGER: Inhibition of human KARPAS-422 cell growth in a cell viability assay.

Kasumi 1 = experiment: cells; type: functional, cell-based; conditions: Homo sapiens;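 also: growth inhibition of human Kasumi-1 cells, read out by a cell viability assay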
Description: SANGER: Inhibition of human KASUMI-1 cell growth in a cell viability assay.

KYSE-410 = experiment: cells; type: functional, cell-based; conditions: Homo sapiens;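 also: growth inhibition of KYSE-410 cells, measured through a cell viability readout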
Description: SANGER: Inhibition of human KYSE-410 cell growth in a cell viability assay.

KYSE-520 cell line = experiment: cells; type: functional, cell-based; conditions: Homo sapiens;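 also: growth inhibition of human KYSE-520 cells, read out with a viability assay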
Description: SANGER: Inhibition of human KYSE-520 cell growth in a cell viability assay.

LB996-RCC = experiment: cells; type: functional, cell-based; conditions: Homo sapiens
Description: SANGER: Inhibition of human LB996-RCC cell growth in a cell viability assay.

LK-2 = experiment: cells; type: functional, cell-based; conditions: Homo sapiens;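 also: growth inhibition of LK-2 cells, read out with a viability assay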
Description: SANGER: Inhibition of human LK-2 cell growth in a cell viability assay.

LN-405 = experiment: cells; type: functional, cell-based; conditions: Homo sapiens
Description: SANGER: Inhibition of human LN-405 cell growth in a cell viability assay.

LP-1 = experiment: cells; type: functional, cell-based; conditions: Homo sapiens;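 also: growth inhibition of human LP-1 cells, with the read-out taken from a cell viability assay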
Description: SANGER: Inhibition of human LP-1 cell growth in a cell viability assay.

LU-99A = experiment: cells; type: functional, cell-based; conditions: Homo sapiens;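 also: growth inhibition of LU-99A cells, read out with a cell viability assay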
Description: SANGER: Inhibition of human LU-99A cell growth in a cell viability assay.

M14 = experiment: cells; type: functional, cell-based; conditions: Homo sapiens;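 also: growth inhibition of M14 cells, read out with a cell viability assay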
Description: SANGER: Inhibition of human M14 cell growth in a cell viability assay.

MCF7 = experiment: cells; type: functional, cell-based; conditions: Homo sapiens;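 also: growth inhibition of human MCF7 cells, read out with a cell viability assay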
Description: SANGER: Inhibition of human MCF7 cell growth in a cell viability assay.

MKN-28 = experiment: cells; type: functional, cell-based; conditions: Homo sapiens;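 also: cell viability assay read-out, IC50 reflects suppression of growth of human MKN-28 cells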
Description: SANGER: Inhibition of human MKN28 cell growth in a cell viability assay.

NCI-H1437 = experiment: cells; type: functional, cell-based; conditions: Homo sapiens;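 also: growth inhibition of human NCI-H1437 cells, read out by a cell viability assay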
Description: SANGER: Inhibition of human NCI-H1437 cell growth in a cell viability assay.

NCI-H1694 = experiment: cells; type: functional, cell-based; conditions: Homo sapiens;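 also: cell viability assay measuring inhibition of growth in human NCI-H1694 cells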
Description: SANGER: Inhibition of human NCI-H1694 cell growth in a cell viability assay.

NCI-H2342 = experiment: cells; type: functional, cell-based; conditions: Homo sapiens;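 also: growth inhibition of the cancer cell line, determined with a cell viability assay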
Description: SANGER: Inhibition of human NCI-H2342 cell growth in a cell viability assay.

NCI-H28 = experiment: cells; type: functional, cell-based; conditions: Homo sapiens;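 also: growth inhibition of human NCI-H28 cells, read out as cell viability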
Description: SANGER: Inhibition of human NCI-H28 cell growth in a cell viability assay.

NCI-H441 = experiment: cells; type: functional, cell-based; conditions: Homo sapiens;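 also: growth inhibition of NCI-H441 cells, read out with a cell viability assay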
Description: SANGER: Inhibition of human NCI-H441 cell growth in a cell viability assay.

NCI-H661 = experiment: cells; type: functional, cell-based; conditions: Homo sapiens;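 also: cell viability assay read-out, IC50 being the concentration that inhibits growth of the cells by half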
Description: SANGER: Inhibition of human NCI-H661 cell growth in a cell viability assay.

NCI-H719 = experiment: cells; type: functional, cell-based; conditions: Homo sapiens;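 also: growth inhibition of the cultured cell line, read out with a viability assay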
Description: SANGER: Inhibition of human NCI-H719 cell growth in a cell viability assay.

OPM-2 = experiment: cells; type: functional, cell-based; conditions: Homo sapiens;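 also: growth of OPM-2 cells measured with a viability assay, IC50 for suppression of proliferation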
Description: SANGER: Inhibition of human OPM-2 cell growth in a cell viability assay.

OVCAR-3 = experiment: cells; type: functional, cell-based; conditions: Homo sapiens;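 also: growth inhibition of human OVCAR-3 cells, determined by a cell viability assay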
Description: SANGER: Inhibition of human OVCAR-3 cell growth in a cell viability assay.

PA-1 = experiment: cells; type: functional, cell-based; conditions: Homo sapiens;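 also: IC50 for suppression of PA-1 cell proliferation, determined with a cell viability read-out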
Description: SANGER: Inhibition of human PA-1 cell growth in a cell viability assay.

PANC-03-27 = experiment: cells; type: functional, cell-based; conditions: Homo sapiens
Description: SANGER: Inhibition of human PANC-03-27 cell growth in a cell viability assay.

PC-14 = experiment: cells; type: functional, cell-based; conditions: Homo sapiens;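 also: cell viability assay measuring inhibition of PC-14 cell growth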
Description: SANGER: Inhibition of human PC-14 cell growth in a cell viability assay.

PC-3 = experiment: cells; type: functional, cell-based; conditions: Homo sapiens;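 also: cell viability assay measuring growth inhibition of PC-3 cells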
Description: SANGER: Inhibition of human PC-3 cell growth in a cell viability assay.

RL = experiment: cells; type: functional, cell-based; conditions: Homo sapiens
Description: SANGER: Inhibition of human RL cell growth in a cell viability assay.

RPMI-2650 = experiment: cells; type: functional, cell-based; conditions: Homo sapiens
Description: SANGER: Inhibition of human RPMI-2650 cell growth in a cell viability assay.

S-117 = experiment: cells; type: functional, cell-based; conditions: Homo sapiens
Description: SANGER: Inhibition of human S-117 cell growth in a cell viability assay.

SAS = experiment: cells; type: functional, cell-based; conditions: Homo sapiens;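 also: growth inhibition of SAS cells, read out with a cell viability assay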
Description: SANGER: Inhibition of human SAS cell growth in a cell viability assay.

SCC-4 = experiment: cells; type: functional, cell-based; conditions: Homo sapiens;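 also: growth inhibition of human SCC-4 cells, read out as cell viability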
Description: SANGER: Inhibition of human SCC-4 cell growth in a cell viability assay.

SK-LU-1 = experiment: cells; type: functional, cell-based; conditions: Homo sapiens;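 also: cell viability assay measuring growth inhibition of human SK-LU-1 cells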
Description: SANGER: Inhibition of human SK-LU-1 cell growth in a cell viability assay.

SK-MEL-28 = experiment: cells; type: functional, cell-based; conditions: Homo sapiens;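 also: growth inhibition of human SK-MEL-28 cells, read out with a cell viability assay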
Description: SANGER: Inhibition of human SK-MEL-28 cell growth in a cell viability assay.

SK-MEL3 = experiment: cells; type: functional, cell-based, SK-MEL-3; conditions: Homo sapiens;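 also: growth inhibition of human SK-MEL-3 cells, read out with a cell viability assay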
Description: SANGER: Inhibition of human SK-MEL-3 cell growth in a cell viability assay.

SW1990 = experiment: cells; type: functional, cell-based; conditions: Homo sapiens
Description: SANGER: Inhibition of human SW1990 cell growth in a cell viability assay.

SW626 = experiment: cells; type: functional, cell-based; conditions: Homo sapiens;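 also: growth inhibition of SW626 cells, measured with a cell viability assay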
Description: SANGER: Inhibition of human SW626 cell growth in a cell viability assay.

SW780 = experiment: cells; type: functional, cell-based; conditions: Homo sapiens;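 also: growth inhibition of the cells, read out with a cell viability assay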
Description: SANGER: Inhibition of human SW780 cell growth in a cell viability assay.

SAOS-2 = experiment: cells; type: functional, cell-based; conditions: Homo sapiens;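 also: growth inhibition of human Saos-2 cells determined by a cell viability assay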
Description: SANGER: Inhibition of human Saos-2 cell growth in a cell viability assay.

5637 = experiment: cells; type: functional, cell-based; conditions: Homo sapiens
Description: SANGER: Inhibition of human 5637 cell growth in a cell viability assay.

639-V = experiment: cells; type: functional, cell-based; conditions: Homo sapiens;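 also: growth inhibition of 639-V cells, read out with a cell viability assay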
Description: SANGER: Inhibition of human 639-V cell growth in a cell viability assay.

647-V = experiment: cells; type: functional, cell-based; conditions: Homo sapiens;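 also: growth inhibition of 647-V cells, read out with a cell viability assay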
Description: SANGER: Inhibition of human 647-V cell growth in a cell viability assay.

8505C = experiment: cells; type: functional, cell-based; conditions: Homo sapiens
Description: SANGER: Inhibition of human 8505C cell growth in a cell viability assay.

A-375 = experiment: cells; type: functional, cell-based; conditions: Homo sapiens;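 also: growth inhibition of A375 cells, read out with a cell viability assay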
Description: SANGER: Inhibition of human A375 cell growth in a cell viability assay.

ACHN = experiment: cells; type: functional, cell-based; conditions: Homo sapiens;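 also: cell viability read-out used to gauge how strongly growth of human ACHN cells is suppressed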
Description: SANGER: Inhibition of human ACHN cell growth in a cell viability assay.

BC1 cell line = experiment: SANGER: Inhibition of human BC-1 cell growth in a cell viability assay.; type: functional, cell-based
BL-70 = experiment: SANGER: Inhibition of human BL-70 cell growth in a cell viability assay.; type: functional, cell-based
CA46 = experiment: cells; type: functional, cell-based; conditions: Homo sapiens;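 also: growth inhibition of human CA46 cells, read out by a cell viability assay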
Description: SANGER: Inhibition of human CA46 cell growth in a cell viability assay.

CAL-12T = experiment: cells; type: functional, cell-based, Homo sapiens; conditions: Homo sapiens, CAL-12T;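 also: growth inhibition of human CAL-12T cells, read out with a cell viability assay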
Description: SANGER: Inhibition of human CAL-12T cell growth in a cell viability assay.

CAMA-1 = experiment: cells; type: functional, cell-based; conditions: Homo sapiens;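 also: growth inhibition of CAMA-1 cells, read out with a cell viability assay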
Description: SANGER: Inhibition of human CAMA-1 cell growth in a cell viability assay.

CESS = experiment: SANGER: Inhibition of human CESS cell growth in a cell viability assay.; type: functional, cell-based
CHL-1 = experiment: cells; type: functional, cell-based; conditions: Homo sapiens;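 also: cell growth inhibition, read out with a cell viability assay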
Description: SANGER: Inhibition of human CHL-1 cell growth in a cell viability assay.

CHP-126 = experiment: cells; type: functional, cell-based; conditions: Homo sapiens
Description: SANGER: Inhibition of human CHP-126 cell growth in a cell viability assay.

COLO-678 = experiment: cells; type: functional, cell-based; conditions: Homo sapiens
Description: SANGER: Inhibition of human COLO-678 cell growth in a cell viability assay.

COLO-680N = experiment: cells; type: functional, cell-based; conditions: Homo sapiens;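 also: cell viability assay used to measure inhibition of COLO-680N cell growth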
Description: SANGER: Inhibition of human COLO-680N cell growth in a cell viability assay.

Structure (SMILES): O=c1[nH]c2ccccc2n1C1CCN(Cc2ccc(-c3nc4cc5[nH]cnc5cc4nc3-c3ccccc3)cc2)CC1
- IC50 (COR-L23): > 2.56 µM
- IC50 (DMS-153): > 2.56 µM
- IC50 (G-402): 1.78 µM
- IC50 (GP5d): > 2.56 µM
- IC50 (HCC1569): > 2.56 µM
- IC50 (HEC-1): > 2.56 µM
- IC50 (HSC-3): > 2.56 µM
- IC50 (HT-1376): > 2.56 µM
- IC50 (HuO9): 1.55 µM
- IC50 (IGROV-1): 0.723 µM
- IC50 (IMR-5): > 2.56 µM
- IC50 (JEG-3): > 2.56 µM
- IC50 (KARPAS-422): > 2.56 µM
- IC50 (Kasumi 1): 1.41 µM
- IC50 (KYSE-410): > 2.56 µM
- IC50 (KYSE-520 cell line): > 2.56 µM
- IC50 (LB996-RCC): > 2.56 µM
- IC50 (LK-2): > 2.56 µM
- IC50 (LN-405): > 2.56 µM
- IC50 (LP-1): > 2.56 µM
- IC50 (LU-99A): > 2.56 µM
- IC50 (M14): > 2.56 µM
- IC50 (MCF7): > 2.56 µM
- IC50 (MKN-28): > 2.56 µM
- IC50 (NCI-H1437): > 2.56 µM
- IC50 (NCI-H1694): > 2.56 µM
- IC50 (NCI-H2342): 0.938 µM
- IC50 (NCI-H28): > 2.56 µM
- IC50 (NCI-H441): > 2.56 µM
- IC50 (NCI-H661): > 2.56 µM
- IC50 (NCI-H719): > 2.56 µM
- IC50 (OPM-2): > 2.56 µM
- IC50 (OVCAR-3): 1.84 µM
- IC50 (PA-1): > 2.56 µM
- IC50 (PANC-03-27): > 2.56 µM
- IC50 (PC-14): > 2.56 µM
- IC50 (PC-3): > 2.56 µM
- IC50 (RL): > 2.56 µM
- IC50 (RPMI-2650): > 2.56 µM
- IC50 (S-117): > 2.56 µM
- IC50 (SAS): > 2.56 µM
- IC50 (SCC-4): > 2.56 µM
- IC50 (SK-LU-1): > 2.56 µM
- IC50 (SK-MEL-28): > 2.56 µM
- IC50 (SK-MEL3): > 2.56 µM
- IC50 (SW1990): > 2.56 µM
- IC50 (SW626): > 2.56 µM
- IC50 (SW780): > 2.56 µM
- IC50 (SAOS-2): > 2.56 µM
- IC50 5637: > 2.56 µM
- IC50 (639-V): > 2.56 µM
- IC50 (647-V): > 2.56 µM
- IC50 (8505C): > 2.56 µM
- IC50 (A-375): > 2.56 µM
- IC50 (ACHN): > 2.56 µM
- IC50 (BC1 cell line): > 2.56 µM
- IC50 (BL-70): > 2.56 µM
- IC50 (CA46): > 2.56 µM
- IC50 (CAL-12T): > 2.56 µM
- IC50 (CAMA-1): > 2.56 µM
- IC50 (CESS): > 2.56 µM
- IC50 (CHL-1): > 2.56 µM
- IC50 (CHP-126): > 2.56 µM
- IC50 (COLO-678): > 2.56 µM
- IC50 (COLO-680N): > 2.56 µM
